The source of these data is patent publication US12291518B2, “Thyroid hormone receptor agonists and use thereof” (Eccogene Inc., priority 2020, dated 2025).

In test [1] the target is T1, THR alpha-LBD (Homo sapiens, UniProt P10827).
T1 construct: except that THR alpha-LBD of a final concentration 0.25 nM was used; purchased Invitrogen PV4687
As to the kind of experiment: THR-α Coactivator Peptide Recruitment Assay (LanthaScreen TR-FRET). The settings on record: TR-FRET coactivator recruitment, THR alpha-LBD 0.25 nM; for EC50: read-out: THRα EC50. In kind it is biochemical. Put shortly:
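TR-FRET coactivator recruitment with THR alpha-LBD at 0.25 nM final, Fluorescein-SRC2-2 peptide 0.1 nM and Tb-labeled anti-GST antibody 2 nM; 2 h incubation at room temperature. 520/495 nm emission ratio fitted to a four-parameter sigmoidal curve to give EC50.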

Test [2] has as its target T2, THR beta-LBD (Homo sapiens, UniProt P10828).
T2 construct: THR beta-LBD (the final concentration is 0.5 nM) was added to the 384-well assay plate; purchased Invitrogen PV4686
T2 sequence (P10828 217-461 limits assumed): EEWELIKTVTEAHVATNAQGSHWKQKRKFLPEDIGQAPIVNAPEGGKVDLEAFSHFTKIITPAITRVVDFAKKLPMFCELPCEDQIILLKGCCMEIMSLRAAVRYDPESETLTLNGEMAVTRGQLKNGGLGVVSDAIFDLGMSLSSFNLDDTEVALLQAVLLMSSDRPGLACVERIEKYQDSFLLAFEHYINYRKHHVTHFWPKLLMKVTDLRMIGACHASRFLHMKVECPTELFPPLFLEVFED
As to the kind of experiment: THR-β Coactivator Peptide Recruitment Assay (LanthaScreen TR-FRET). In kind it is biochemical. The settings on record: TR-FRET coactivator recruitment, THR beta-LBD 0.5 nM; for EC50: read-out: THRβ EC50. A digest of the protocol: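 GST-tagged THR beta-LBD (0.5 nM) with test compound recruits fluorescein-SRC2-2 coactivator peptide (0.1 nM), detected with Tb-anti-GST antibody (2 nM).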
Background: In TR-FRET formats the signal depends on donor and acceptor labels being close together.

T1 sequence (P10827 163-410 isoform P10827-2 limits assumed, other chains not shown): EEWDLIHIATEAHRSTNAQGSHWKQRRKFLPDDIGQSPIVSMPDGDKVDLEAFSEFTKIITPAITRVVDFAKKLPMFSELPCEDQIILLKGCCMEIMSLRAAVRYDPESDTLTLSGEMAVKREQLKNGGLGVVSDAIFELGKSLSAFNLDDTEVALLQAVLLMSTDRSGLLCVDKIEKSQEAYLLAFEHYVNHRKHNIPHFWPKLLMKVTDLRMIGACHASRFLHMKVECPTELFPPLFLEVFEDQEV

Broadly, the EC50 is the midpoint of the concentration-response curve. Turning to `O=c1[nH]c(=O)n(-c2cc(Cl)c(Oc3cc(S(=O)(=O)N[C@H]4CC[C@@H](O)CC4)c(O)cn3)c(Cl)c2)nc1C(F)F` [Compound 144, 2-(2,6-dichloro-4-(6-(difluoromethyl)-3,5-dioxo-4,5-dihydro-1,2,4-triazin-2(3H)-yl)phenoxy)-5-hydroxy-N-((1s,4s)-4-hydroxycyclohexyl)pyridine-4-sulfonamide], in test [1], the “THRα Emax” value is “C (<40)” and the EC50 was above 1000 nM. Moreover, in test [2], the “THRβ Emax” value is reported as “C (<75)” and the EC50 lay in the range of 20 to 100 nM.

As for `O=C(NC1CCC1)c1cc(Oc2c(Cl)cc(-n3nc(C(F)F)c(=O)[nH]c3=O)cc2Cl)ncc1O` [Compound 145, N-cyclobutyl-2-[2,6-dichloro-4-[6-(difluoromethyl)-3,5-dioxo-1,2,4-triazin-2-yl]phenoxy]-5-hydroxy-pyridine-4-carboxamide], in test [1], the “THRα Emax” value is on record as “B (40~85)” and the concentration for a half-maximal effect (EC50) lay within 2 to 200 nM. Moreover, in test [2], the “THRβ Emax” value was “B (75~90)” and the half-maximal effective concentration (EC50) was in the range of 2 to 20 nM.

For the compound `CS(=O)(=O)c1cc(Oc2c(Cl)cc(-n3nc(C(F)F)c(=O)[nH]c3=O)cc2Cl)ncc1O` [Compound 146, 2-[3,5-dichloro-4-[(5-hydroxy-4-methylsulfonyl-2-pyridyl)oxy]phenyl]-6-(difluoromethyl)-1,2,4-triazine-3,5-dione], in test [1], the “THRα Emax” value is “A (85~110)” and the EC50 is 2 to 200 nM. In addition, in test [2], the “THRβ Emax” value is reported as “A (90~110)” and the concentration giving a half-maximal response (EC50) fell in the range of 2 to 20 nM.

Take `CS(=O)(=O)c1cc(Oc2c(Cl)cc(-n3nc(C#N)c(=O)[nH]c3=O)cc2Cl)ncc1O` [Compound 147, 2-[3,5-dichloro-4-[(5-hydroxy-4-methylsulfonyl-2-pyridyl)oxy]phenyl]-3,5-dioxo-1,2,4-triazine-6-carbonitrile]: in test [1], the “THRα Emax” value is reported as “B (40~85)” and the EC50 lay in the range of 200 to 1000 nM. In test [2], the “THRβ Emax” value is given as “A (90~110)” and the EC50 was 20 to 100 nM.

Regarding `O=c1[nH]c(=O)n(-c2cc(Cl)c(Oc3cc(S(=O)(=O)NC4CS(=O)(=O)C4)c(O)cn3)c(Cl)c2)nc1C(F)F` [Compound 148, 2-[2,6-dichloro-4-[6-(difluoromethyl)-3,5-dioxo-1,2,4-triazin-2-yl]-phenoxy]-N-(1,1-dioxothietan-3-yl)-5-hydroxy-pyridine-4-sulfonamide], in test [1], the “THRα Emax” value is recorded as “A (85~110)” and the EC50 was in the range of 2 to 200 nM. In test [2], the “THRβ Emax” value is listed as “B (75~90)” and the half-maximal effective concentration (EC50) is 2 to 20 nM.

Turning to `N#Cc1cc(O)c(S(=O)(=O)N[C@H]2C[C@H](O)C2)cc1Oc1c(Cl)cc(-n2nc(C(F)F)c(=O)[nH]c2=O)cc1Cl` [Compound 149, 4-cyano-5-[2,6-dichloro-4-[6-(difluoromethyl)-3,5-dioxo-1,2,4-triazin-2-yl]phenoxy]-2-hydroxy-N-(3-hydroxycyclobutyl)benzenesulfonamide], in test [1], the “THRα Emax” value is “C (<40)” and the half-maximal effective concentration (EC50) is above 1000 nM. Moreover, in test [2], the “THRβ Emax” value is “C (<75)” and the concentration giving a half-maximal response (EC50) is above 100 nM.

Turning to `N#Cc1nn(-c2cc(Cl)c(Oc3cc(S(=O)(=O)NC4CCC4)c(O)cn3)c(Cl)c2)c(=O)[nH]c1=O` [Compound 150], in test [1], the “THRα Emax” value is on record as “A (85~110)” and the half-maximal effective concentration (EC50) lay in the range of 2 to 200 nM. In addition, in test [2], the “THRβ Emax” value is listed as “A (90~110)” and the concentration giving a half-maximal response (EC50) lay in the range of 2 to 20 nM.

`CCS(=O)(=O)c1cc(Oc2c(Cl)cc(-n3nc(C(F)F)c(=O)[nH]c3=O)cc2Cl)ncc1O` [Compound 151, 2-[3,5-dichloro-4-[(4-ethylsulfonyl-5-hydroxy-2-pyridyl)oxy]phenyl]-6-(difluoromethyl)-1,2,4-triazine-3,5-dione]: in test [1], the “THRα Emax” value is recorded as “A (85~110)” and the EC50 is 2 to 200 nM. Further, in test [2], the “THRβ Emax” value was “A (90~110)” and the concentration giving a half-maximal response (EC50) was below 2 nM.

On to `O=c1[nH]c(=O)n(-c2cc(Cl)c(Cc3ccc(O)c(S(=O)(=O)NC4CS(=O)(=O)C4)c3)c(Cl)c2)nc1C(F)F` [Compound 152, 5-[[2,6-dichloro-4-[6-(difluoromethyl)-3,5-dioxo-1,2,4-triazin-2-yl]phenyl]methyl]-N-(1,1-dioxothietan-3-yl)-2-hydroxy-benzenesulfonamide], for which, in test [1], the “THRα Emax” value was “A (85~110)” and the EC50 is below 2 nM. Besides, in test [2], the “THRβ Emax” value is “A (90~110)” and the concentration giving a half-maximal response (EC50) is below 2 nM.

As for `O=c1[nH]c(=O)n(-c2cc(Cl)c(Oc3cc(S(=O)(=O)C4CCC4)c(O)cn3)c(Cl)c2)nc1C(F)F` [Compound 153, 2-[3,5-dichloro-4-[(4-cyclobutylsulfonyl-5-hydroxy-2-pyridyl)-oxy]phenyl]-6-(difluoromethyl)-1,2,4-triazine-3,5-dione], in test [1], the “THRα Emax” value is “A (85~110)” and the EC50 lay within 2 to 200 nM. In test [2], the “THRβ Emax” value is listed as “A (90~110)” and the half-maximal effective concentration (EC50) is below 2 nM.

For the compound `CS(=O)(=O)Cc1cc(Oc2c(Cl)cc(-n3nc(C(F)F)c(=O)[nH]c3=O)cc2Cl)ncc1O` [Compound 154, 2-[3,5-dichloro-4-[[5-hydroxy-4-(methylsulfonylmethyl)-2-pyridyl]oxy]phenyl]-6-(difluoromethyl)-1,2,4-triazine-3,5-dione], in test [1], the “THRα Emax” value was “B (40~85)” and the EC50 was in the range of 200 to 1000 nM. Besides, in test [2], the “THRβ Emax” value is on record as “B (75~90)” and the EC50 fell in the range of 2 to 20 nM.

As to `O=c1[nH]c(=O)n(-c2cc(Cl)c(Cc3cc(S(=O)(=O)N[C@H]4C[C@H](O)C4)c(O)cn3)c(Cl)c2)nc1C(F)F` [Compound 156, 2-(2,6-dichloro-4-(6-(difluoromethyl)-3,5-dioxo-4,5-dihydro-1,2,4-triazin-2 (3H)-yl)benzyl)-5-hydroxy-N-((1r,3r)-3-hydroxycyclobutyl)pyridine-4-sulfonamide], in test [1], the “THRα Emax” value is recorded as “B (40~85)” and the EC50 is above 1000 nM. Also, in test [2], the “THRβ Emax” value is listed as “A (90~110)” and the half-maximal effective concentration (EC50) was 2 to 20 nM.

Take `O=c1[nH]c(=O)n(-c2cc(Cl)c(Oc3cc(S(=O)(=O)NC4COC4)c(O)cn3)c(Cl)c2)nc1C(F)F` [Compound 158, 2-(2,6-dichloro-4-(6-(difluoromethyl)-3,5-dioxo-4,5-dihydro-1,2,4-triazin-2(3H)-yl)phenoxy)-5-hydroxy-N-(oxetan-3-yl)pyridine-4-sulfonamide]: in test [1], the “THRα Emax” value is listed as “A (85~110)” and the EC50 was 2 to 200 nM. In test [2], the “THRβ Emax” value is listed as “A (90~110)” and the EC50 was below 2 nM.

On to `O=c1[nH]c(=O)n(-c2cc(Cl)c(Oc3cc(S(=O)(=O)NC45CCC(O)(C4)C5)c(O)cn3)c(Cl)c2)nc1C(F)F` [Compound 159, 2-(2,6-dichloro-4-(6-(difluoromethyl)-3,5-dioxo-4,5-dihydro-1,2,4-triazin-2(3H)-yl)phenoxy)-5-hydroxy-N-(4-hydroxybicyclo[2.1.1]hexan-1-yl)pyridine-4-sulfonamide], for which, in test [1], the “THRα Emax” value is “B (40~85)” and the EC50 fell in the range of 200 to 1000 nM. Also, in test [2], the “THRβ Emax” value is “B (75~90)” and the EC50 lay in the range of 20 to 100 nM.

Take `O=c1[nH]c(=O)n(-c2cc(Cl)c(Oc3cc(S(=O)(=O)NC45CCC(O)(CC4)C5)c(O)cn3)c(Cl)c2)nc1C(F)F` [Compound 160, 2-(2,6-dichloro-4-(6-(difluoromethyl)-3,5-dioxo-4,5-dihydro-1,2,4-triazin-2(3H)-yl)phenoxy)-5-hydroxy-N-(4-hydroxybicyclo[2.2.1]heptan-1-yl)pyridine-4-sulfonamide]: in test [1], the “THRα Emax” value is on record as “B (40~85)” and the concentration for a half-maximal effect (EC50) was above 1000 nM. Also, in test [2], the “THRβ Emax” value is recorded as “B (75~90)” and the EC50 lay within 20 to 100 nM.

With `Cc1nn(-c2cc(Cl)c(Oc3cc(S(=O)(=O)N[C@H]4C[C@H](O)C4)c(O)cn3)c(Cl)c2)c(=O)[nH]c1=O` [Compound 161, 2-(2,6-dichloro-4-(6-methyl-3,5-dioxo-4,5-dihydro-1,2,4-triazin-2(3H)-yl)phenoxy)-5-hydroxy-N-((1r,3r)-3-hydroxycyclobutyl)pyridine-4-sulfonamide], in test [1], the “THRα Emax” value is listed as “B (40~85)” and the 50% effective concentration (EC50) is 200 to 1000 nM. Further, in test [2], the “THRβ Emax” value is “B (75~90)” and the EC50 was in the range of 20 to 100 nM.

Turning to `Cc1nn(-c2cc(Cl)c(Oc3cc(S(=O)(=O)N[C@H]4C[C@@H](O)C4)c(O)cn3)c(Cl)c2)c(=O)[nH]c1=O` [Compound 162, 2-(2,6-dichloro-4-(6-methyl-3,5-dioxo-4,5-dihydro-1,2,4-triazin-2(3H)-yl)phenoxy)-5-hydroxy-N-((1s,3s)-3-hydroxycyclobutyl)pyridine-4-sulfonamide], in test [1], the “THRα Emax” value is “C (<40)” and the concentration giving a half-maximal response (EC50) was above 1000 nM. In test [2], the “THRβ Emax” value is reported as “B (75~90)” and the concentration for a half-maximal effect (EC50) was above 100 nM.

Turning to `Cc1nn(-c2cc(Cl)c(Oc3cc(S(=O)(=O)N[C@@H]4CCOC4)c(O)cn3)c(Cl)c2)c(=O)[nH]c1=O` [Compound 163, (R)-2-(2,6-dichloro-4-(6-methyl-3,5-dioxo-4,5-dihydro-1,2,4-triazin-2(3H)-yl)phenoxy)-5-hydroxy-N-(tetrahydrofuran-3-yl)pyridine-4-sulfonamide], in test [1], the “THRα Emax” value is recorded as “B (40~85)” and the EC50 lay within 200 to 1000 nM. For the same compound, in test [2], the “THRβ Emax” value was “B (75~90)” and the half-maximal effective concentration (EC50) lay within 20 to 100 nM.
